Reference: patent publication US20060293374A1, “Substituted isothiazolones” (priority 2005, published 2006)

Experiments:
[1] = test system: Neutrophil LTB4; assay: Neutrophil LTB4 assay (calcium ionophore challenge, EIA); format: cell-based; settings: Neutrophil; test concentration of 5 μM; human neutrophils, calcium ionophore 1 μM; read-out: LTB4 percent inhibition
Protocol: Neutrophils purified from human blood were resuspended in HBSS buffer containing calcium and magnesium to a cell density of 1×10^6/mL. Purified neutrophils were then incubated with test compounds at a test concentration of 5 μM for 15 min at 37° C. Following incubation, the cells were challenged with calcium ionophore (1 μM final) for 15 minutes at 37° C. Negative control wells were incubated with equal volume of vehicle. The reaction was stopped by transferring the plate to ice for 5 minutes. The plate was centrifuged at 1500 RPM for 5 min at 4° C. LTB4 was calculated in cell free supernatants by EIA (Assay Design Inc).

[2] = test system: TXB2 Released by Human Platelets; assay: Ionophore and arachidonic acid induced TXB2 released by human platelets (EIA); format: cell-based; settings: human platelet-rich plasma; for IC50: challenge with calcium ionophore (10 μM) or arachidonic acid (50 μM); for inhibition at 1 µM: test concentration of 1 μM, calcium ionophore or arachidonic acid challenge, read-out: TXB2 percent inhibition
Protocol: Ionophore and Arachidonic Acid Induced TXB2 Released by Human Platelets
The plate was incubated for 15 minutes at 37° C. Following incubation, platelets were challenged with calcium ionophore (final 10 μM) or arachidonic acid (AA) (final 50 μM) and the plate was further incubated at 37° C. for 15 min. The plate was transferred to an ice bed for 5 min in order to stop the reaction. Supernatants were assayed for TXB2 production by EIA (Assay Design Inc) after diluting with assay buffer (Assay Design Inc).

Row | SMILES | inhibition at 5 µM [1] [%] | IC50 [2] [nM] | inhibition at 1 µM [2] [%]
1 | O=c1cc(Cl)sn1Cc1cccc2ccccc12 [Cpd 1, 5-chloro-2-naphthalen-1-ylmethyl-isothiazol-3-one] | 99 | 3000 | 
2 | O=c1cc(Cl)sn1C1CCc2ccccc21 (stereo not drawn) [Cpd 3, 5-chloro-2-indan-1-yl-isothiazol-3-one] | 86 | 900 | 
3 | O=c1cc(Cl)sn1CC1CCCc2ccccc21 (stereo not drawn) [Cpd 4, 5-chloro-2-(1,2,3,4-tetrahydro-naphthalen-1-ylmethyl)-isothiazol-3-one] | 100 | 3300 | 
4 | CC(c1cccc2ccccc12)n1sc(Cl)cc1=O (stereo not drawn) [Cpd 5, 5-chloro-2-(1-naphthalen-1-yl-ethyl)-isothiazol-3-one] | 100 | 600 | 
5 | O=c1ccsn1Cc1sc2ccccc2c1Cl [Cpd 8, 2-(3-chloro-benzo[b]thiophen-2-ylmethyl)-isothiazol-3-one] | 74 | 1400 | 
6 | O=c1c(Cl)c(Cl)sn1Cc1csc2ccccc12 [Cpd 10, 2-benzo[b]thiophen-3-ylmethyl-4,5-dichloro-isothiazol-3-one] | 100 |  | 84
7 | O=c1cc(Cl)sn1Cc1csc2ccccc12 [Cpd 11, 2-benzo[b]thiophen-3-ylmethyl-5-chloro-isothiazol-3-one] | 100 |  | 68
8 | O=c1ccsn1Cc1csc2ccccc12 [Cpd 12, 2-benzo[b]thiophen-3-ylmethyl-isothiazol-3-one] | 89 | 750 | 
9 | O=c1ccsn1Cc1ccc2ccccc2c1 [Cpd 13, 2-naphthalen-2-ylmethyl-isothiazol-3-one] | 78 | 1300 | 
10 | O=c1cc(Cl)sn1Cc1ccc2ccccc2c1 [Cpd 14, 5-chloro-2-naphthalen-2-ylmethyl-isothiazol-3-one] | 96 | 350 | 
11 | O=c1c(Cl)c(Cl)sn1Cc1ccc2ccccc2c1 [Cpd 15, 4,5-dichloro-2-naphthalen-2-ylmethyl-isothiazol-3-one] | 75 | 330 | 
12 | O=c1ccsn1Cc1ccc2c(c1)CCO2 [Cpd 17, 2-(2,3-dihydro-benzofuran-5-ylmethyl)-isothiazol-3-one] | 39 | 5800 | 
13 | O=c1c(Cl)c(Cl)sn1Cc1csc2ccc(Cl)cc12 [Cpd 18, 4,5-dichloro-2-(5-chloro-benzo[b]thiophen-3-ylmethyl)-isothiazol-3-one] | 71 | 280 | 
14 | O=c1cc(Cl)sn1Cc1csc2ccc(Cl)cc12 [Cpd 19, 5-chloro-2-(5-chloro-benzo[b]thiophen-3-ylmethyl)-isothiazol-3-one] | 100 | 1000 | 
15 | O=c1ccsn1Cc1csc2ccc(Cl)cc12 [Cpd 20, 2-(5-chloro-benzo[b]thiophen-3-ylmethyl)-isothiazol-3-one] | 88 | 1000 | 
16 | O=c1ccsn1Cc1ccc(-c2csnn2)cc1 [Cpd 22, 2-(4-[1,2,3]thiadiazol-4-yl-benzyl)-isothiazol-3-one] | 50 | 1200 | 
17 | O=c1cc(Cl)sn1Cc1ccc(-c2ccco2)cc1 [Cpd 23, 5-chloro-2-(4-furan-2-yl-benzyl)-isothiazol-3-one] | 100 | 300 | 
18 | O=c1c(Cl)c(Cl)sn1Cc1ccc(-c2csnn2)cc1 [Cpd 24, 4,5-dichloro-2-(4-[1,2,3]thiadiazol-4-yl-benzyl)-isothiazol-3-one] | 52 | 500 | 
19 | CC(=O)c1ccc(Cn2sccc2=O)cc1 [Cpd 25, 2-(4-acetylbenzyl)-isothiazol-3-one] | 54 | 1000 | 
20 | C=Cc1ccc(Cn2sc(Cl)cc2=O)cc1 [Cpd 27, 5-chloro-2-(4-vinyl-benzyl)-isothiazol-3-one] | 100 | 800 | 
21 | O=c1c(Cl)c(Cl)sn1Cc1ccc(C#Cc2cccc(Cl)c2)cc1 [Cpd 28, 4,5-dichloro-2-[4-(3-chlorophenylethynyl)-benzyl]-isothiazol-3-one] | 100 | 3500 | 
22 | CS(=O)(=O)c1ccc(Cn2sc(Cl)c(Cl)c2=O)cc1 [Cpd 29, 4,5-dichloro-2-(4-methanesulfonyl-benzyl)-isothiazol-3-one] | 64 | 300 | 
23 | CC(c1ccc(S(C)(=O)=O)cc1)n1sc(Cl)c(Cl)c1=O (stereo not drawn) [Cpd 30, 4,5-dichloro-2-[1-(4-methanesulfonyl-phenyl)-ethyl]-isothiazol-3-one] | 100 | 200 | 

Row | SMILES | inhibition at 5 µM [1] [%] | IC50 [2] [nM] | inhibition at 1 µM [2] [%]
24 | Cc1nc(-c2ccc(Cn3sc(Cl)cc3=O)cc2)cs1 [Cpd 31, 5-chloro-2-[4-(2-methyl-thiazol-4-yl)-benzyl]-isothiazol-3-one] | 88 |  | 54
25 | O=c1cc(Cl)sn1Cc1cccc(-c2csnn2)c1 [Cpd 32, 5-chloro-2-(3-[1,2,3]thiadiazol-4-ylbenzyl)-isothiazol-3-one] | 100 | 600 | 
26 | O=c1c(Cl)c(Cl)sn1C(c1ccccc1)c1ccccn1 (stereo not drawn) [Cpd 33, 4,5-dichloro-2-(phenyl-pyridin-2-yl-methyl)-isothiazol-3-one] | 95 | 200 | 
27 | O=C(c1ccccc1)c1ccc(Cn2sc(Cl)c(Cl)c2=O)cc1 [Cpd 34, 4,5-dichloro-2-(4-benzoylbenzyl)-isothiazol-3-one] | 84 | 400 | 
28 | O=C(c1ccccc1)c1ccc(Cn2sc(Cl)cc2=O)cc1 [Cpd 35, 5-chloro-2-(4-benzoylbenzyl)-isothiazol-3-one] | 100 | 60 | 
29 | O=c1cc(Cl)sn1Cc1ccc(S(=O)(=O)c2ccc(F)cc2)cc1 [Cpd 36, 5-chloro-2-[4-(4-fluoro-benzenesulfonyl)-benzyl]-isothiazol-3-one] | 56 | 500 | 
30 | COC(=O)c1ccc(Cn2sc(Cl)cc2=O)cc1 [Cpd 37, 4-(5-chloro-3-oxo-3H-isothiazol-2-ylmethyl)-benzoic acid methyl ester] | 95 | 500 | 
31 | O=c1cc(Cl)sn1Cc1ccc(S(=O)(=O)c2ccccc2)cc1 [Cpd 38, 5-chloro-2-(4-benzenesulfonyl-benzyl)-isothiazol-3-one] | 93 | 900 | 
32 | O=c1c(Cl)c(Cl)sn1[C@H]1C[C@@H]1c1ccccc1 [Cpd 39, (1S,2R)-4,5-dichloro-2-(2-phenyl-cyclopropyl)-isothiazol-3-one] | 94 | 200 | 
33 | C#Cc1ccc(Cn2sc(Cl)cc2=O)cc1 [Cpd 40, 5-chloro-2-(4-ethynyl-benzyl)-isothiazol-3-one] | 100 | 200 | 
34 | CCCCCS(=O)(=O)c1ccc(Cn2sc(Cl)cc2=O)cc1 [Cpd 41, 5-chloro-2-[4-(pentane-1-sulfonyl)-benzyl]-isothiazol-3-one] | 100 | 500 | 
35 | O=c1cc(Cl)sn1[C@H]1C[C@@H]1c1ccccc1 [Cpd 42, (1S,2R)-5-chloro-2-(2-phenyl-cyclopropyl)-isothiazol-3-one] | 61 | 400 | 
36 | N#Cc1cccc(C#Cc2ccc(Cn3sc(Cl)cc3=O)cc2)c1 [Cpd 43, 3-[4-(5-chloro-3-oxo-3H-isothiazol-2ylmethyl)-phenylethynyl]-benzonitrile] | 100 | 1600 | 
37 | Cc1nc(-c2cccc(-n3sc(Cl)cc3=O)c2)c(Cl)s1 [Cpd 44, 5-chloro-2-[3-(2-methyl-5-chloro-thiazol-4-yl)-phenyl]-isothiazol-3-one] | 69 | 2000 | 
38 | Cc1nc(-c2cccc(-n3sccc3=O)c2)c(Cl)s1 [Cpd 45, 2-[3-(2-methyl-5-chloro-thiazol-4-yl)-phenyl]-isothiazol-3-one] | 100 | 1800 | 
39 | Cc1nc(-c2cccc(-n3sccc3=O)c2)cs1 [Cpd 46, 2-[3-(2-methyl-thiazol-4-yl)-phenyl]-isothiazol-3-one] | 64 | 1000 | 
40 | Cc1nc(-c2cccc(-n3sc(Cl)cc3=O)c2)cs1 [Cpd 47, 5-chloro-2-[3-(2-methyl-thiazol-4-yl)-phenyl]-isothiazol-3-one] | 100 | 1000 | 
41 | O=c1ccsn1Cc1cccc(-c2ccncc2)c1 [Cpd 50, 2-(3-pyridin-4-yl-benzyl)-isothiazol-3-one] | 100 | 500 | 
42 | O=c1cc(Cl)sn1Cc1nc(-c2ccccc2)sc1Cl [Cpd 52, 5-chloro-2-(5-chloro-2-phenyl-thiazol-4-ylmethyl)-isothiazol-3-one] | 81 | 400 | 
43 | O=c1cc(Cl)sn1Cc1csc(-c2ccccc2)n1 [Cpd 53, 5-chloro-2-(2-phenyl-thiazol-4-ylmethyl)-isothiazol-3-one] | 92 | 400 | 
44 | O=c1ccsn1Cc1csc(-c2ccccc2)n1 [Cpd 54, 2-(2-phenyl-thiazol-4-ylmethyl)-isothiazol-3-one] | 96 | 1500 | 
45 | O=c1cc(Cl)sn1Cc1ccc(-n2cc(Cl)cn2)cc1 [Cpd 55, 5-chloro-2-[4-(4-chloro-pyrazol-1-yl)-benzyl]-isothiazol-3-one] | 72 | 3200 | 
